Data published in patent publication US11065249B2, “Diacylglycerol acyl transferase 2 inhibitor” (Pfizer Inc., priority 2019, dated 2021).
Converted amounts (≈) assume the structure as drawn.

Assays:
[1] = test system: Western diet fed Sprague-Dawley rats; experiment: Rat western diet model: in vivo effects on plasma and hepatic triglyceride levels; details: oral twice daily 3-100 mg/kg, compared with chow-fed vehicle animals
From the text: The rat western diet model was utilized to assess the effects of DGAT2 inhibitor treatment on plasma triglyceride production and hepatic triglyceride content in vivo. Male Sprague-Dawley rats were housed under standard laboratory conditions on a 12-hour light, 12-hour dark cycle (lights on at 06:00). Two weeks prior to study start animals were placed on a high-fat, high sucrose, high-cholesterol diet (D12079b, provided by Research Diets, New Brunswick, N.J.). This diet provides ˜43% of kilocalories from carbohydrate and ˜41% of kilocalories from fat. Example 4 was administered orally as a solution (10 mL/kg dosing volume) in 0.5% methylcellulose in deionized water, pH 7.0-7.5 (methylcellulose was obtained from Sigma-Aldrich, St. Louis, Mo.). […] Plasma TG levels were determined using a Roche Hitachi Chemistry analyzer according to the manufacturer's instructions (Roche Diagnostics Corporation, Indianapolis, Ind.) and data was analyzed using GraphPad Prism (GraphPad Software, Inc., La Jolla, Calif.). […] The triglyceride assay was performed through absorbance and reported as milligrams per deciliter. […]
FIG. 4 plots the multiple dose effects of Example 4 on Plasma Triglyceride in Western Diet Fed Sprague-Dawley Rats where plasma triglyceride levels were determined from blood drawn from the lateral tail vein 2-hours following the final dose of Example 4. […]

[2] = High throughput determination of intrinsic clearance in human hepatocytes; format: in vitro ADME; details: human, pooled cryopreserved human hepatocytes (suspension), high throughput human hepatocyte assay, 1 μM test compound; mean +/− Std Dev
Description: The incubation was carried out at 37° C. […] The samples were centrifuged (Eppendorf, Hauppauge, N.Y.) at 3000 rpm for 5 min at 4° C.

[3] = Determination of pKa (capillary electrophoresis, Analiza); format: physicochemical; details: most basic pKa, mean
[4] = Intrinsic clearance in human liver microsomes; format: in vitro ADME; details: human, pooled human liver microsomes, pH 7.4, human liver microsome assay, 1 μM test compound; mean +/− STD Dev
Description: The incubations were conducted at 37° C. […] (Sorvall R C 3C Plus, Thermo Scientific, Waltham, Mass.).

[5] = Intrinsic clearance in human hepatocytes (relay method); format: in vitro ADME; details: cryopreserved human hepatocytes (suspension), relay hepatocyte assay, 1 μM test compound, mean +/− Std Dev
Description: Cryopreserved human hepatocytes (Lot DCM from BioreclamationIVT) were used. […] At time 0 and 4 h, 25 μL of hepatocyte suspension was removed from the incubation and added to 50 μL of ice-cold acetonitrile (containing metoprolol, indomethacin, and terfenadine as internal standards) to quench the reaction. The samples were centrifuged (Eppendorf, Hauppauge, N.Y.) at 3000 rpm (1439×g) for 10 min at room temperature, and 50 μL of supernatant was transferred to a clean plate, dried completely, and reconstituted before liquid chromatography/tandem mass spectrometry (LC-MS/MS) analysis. The remaining hepatocyte suspensions in the incubation plate were centrifuged (3000 rpm, 1439×g, 10 min, room temperature). The supernatant of 300 μL was transferred to a clean 24-well plate and stored at −80° C. until the next relay experiment. For the second relay experiment, the supernatant plates were warmed first to room temperature for 30 minutes, then to 37° C. for 30 min, and hepatocytes were added to the samples to give a final cell density of 0.5 million cells/mL. The plates were incubated at 37° C. for 4 h, sampled, and processed as described above. Five relays were performed to give a total incubation time of 20 h, with sampling points at (0, 4, 8, 12, 16 and 20 h). The concentrations of test compound determined at each time point by the LC-MS/MS analysis were used to calculate the intrinsic clearance.

[6] = Thermodynamic solubility in various biorelevant media (PBS, SGN, FaSSIF, FeSSIF); format: physicochemical; details: 25 °C, thermodynamic from solid
Description: The solubility of active pharmaceutical ingredients is an important characteristic in determining biological performance and ease of formulation during drug development, with high solubility being preferred (Klein, S. 2010, The AAPS Journal, 12, 397-406; Di, L., et al 2012, Drug Disc. Today, 17.486-495). A test sample of crystalline solid (˜7 mg) was combined in a vial with 1 mL of the relevant buffer solution and the mixture vortexed to combine. If the solid dissolved completely, additional solid was added with vortexing until a saturated solution was obtained. The saturated solution/solid mixture was capped and subjected to temperature cycling as follows: 1 min at 25° C.; 8 h at 40° C.; 5 h at 15° C. and 12 h at 25° C. The mixture was filtered in a centrifugal filtration device (0.22 μm PVDF filter, MilliporeSigma, Milwaukee, Wis.) at 13,000 rpm and the concentration of the test compound in the filtrate was determined by HPLC/UPLC with reference to a three point standard curve. Phosphate buffered saline (PBS, pH 6.8, 50 mM phosphate buffer, 250 mM NaCl). Simulated gastric fluid (SGN pH 1.2, USP recipe). Fasted state simulated intestinal fluid (FaSSIF, 3 mM sodium taurocholate, 0.75 mM phospholipid from soybean lecithin, 50 mM phosphate buffer, ionic strength adjusted to 250 mM with NaCl, pH 6.8) and fed state simulated intestinal fluid (FeSSIF, 15 mM sodium taurocholate, 3.75 mM phospholipid from soybean lecithin, 144 mM acetic acid, 50 mM phosphate buffer, ionic strength adjusted to 250 mM with NaCl, pH 6.8).

In the case of CCOc1cccnc1Oc1cncc(-c2ncc(C(=O)N[C@@H]3CNC[C@@H](F)C3)cn2)c1 [Example 4, 2-{5-[(3-Ethoxypyridin-2-yl)oxy]pyridin-3-yl}-N-[(3S,5S)-5-fluoropiperidin-3-yl]pyrimidine-5-carboxamide], the “circulating triglyceride response, resulting levels” value [1] is reported as “approached those of the chow-fed vehicle animals”, the hepatocyte CLint at 1 μM [2] is reported as < 1.8 µL/min/1e6 cells and the pKa [3] is reported as 7.5. The microsomal CLint at 1 μM [4] was < 7 µL/min/mg, the hepatocyte CLint at 1 μM [5] was 0.98 µL/min/1e6 cells and the solubility at 25 h ([6]; fasted state simulated intestinal fluid (FaSSIF), FaSSIF pH 6.8) was 955 µg/mL (≈ 2180 µM). The solubility at 25 h ([6]; phosphate buffered saline, aqueous buffer, PBS, pH 6.8) was 580 µg/mL (≈ 1320 µM) and the solubility at 25 h ([6]; simulated gastric fluid, SGN pH 1.2) was > 27000 µg/mL.
